Test results as given in US20180028594A1, “[…] OPIOID RECEPTOR AGONISTS FOR HARD TISSUE PAIN” (Cara Therapeutics, Inc., priority 2014, published 2018).

Tests used:
[1] = test system: postoperative pain (soft tissue surgery); settings: human, in vivo
[2] = test system: Somatic and visceral pain; assay: Acetic Acid Writhing, somato-visceral inflammatory pain model; assay type: in vivo; settings: Mouse
Description: (§1) In standard preclinical pain models, CR845 successfully attenuated acute and chronic visceral, inflammatory and neuropathic pain in a dose-dependent manner (see Table 1, below). The analgesic effect of CR845 was recordable within 15 minutes post-administration and lasted for up to 18 hours following single-dose administration.

[3] = test system: mechanical hyperalgesia; assay: Complete Freund's Adjuvant, chronic inflammatory pain model; assay type: in vivo; settings: Rat
Description: as §1

[4] = test system: acute and chronic visceral, inflammatory and neuropathic pain; assay: Standard preclinical pain models, onset and duration of analgesic effect; assay type: in vivo
Description: as §1

[5] = test system: pro-inflammatory mediators; assay: Production and release of pro-inflammatory mediators
[6] = test system: mechanical hyperalgesia; assay: Carrageenan, acute inflammatory pain model; assay type: in vivo; settings: Rat
Description: as §1

[7] = Pharmacokinetic studies, drug in extracted brain tissue; assay type: in vivo; settings: animals, analgesic and supra-analgesic doses
[8] = test system: tactile allodynia; assay: L5/6 Spinal Nerve Ligation (Chung Model) of neuropathic pain; assay type: in vivo, Rat
Description: FIG. 1: Efficacy of CR845 in “Chung Model” of neuropathic pain is blocked with Peripheral (Intrapaw) administration of a kappa antagonist (norBNI) in rats. *** denotes p<0.001. compared to vehicle-treated controls (two-way ANOVA). Vehicle or Nor-BNI was administered intraplantarly (0.2 mg) 15 min prior to CR845. Injection (1 mg/kg). N=6 male rats/group, mean±SEM.
The peripheral mechanism of action of CR845 is supported preclinically by both biochemical in vitro assays and in vivo functional pharmacological studies. […] Moreover, in standard preclinical pain models, such as the “Chung Model” of neuropathic pain, the analgesic action of CR845 was blocked with kappa opioid receptor antagonists administered directly to the local site of injury, indicating a peripheral site of action for CR845 (FIG. 1). In the “Chung Model”, neuropathic pain is induced experimentally by ligating spinal nerves mediating sensation for a hind limb. […] Sets of different thickness filaments are used to test sensitivity, each of which is designed to produce a given force (in grams) upon bending after contact. By testing with these filaments, the minimum force to evoke a withdrawal response defines the paw withdrawal threshold. The nerve injury produces a marked reduction in paw withdrawal thresholds (increased sensitivity to force) in response to probing with the filaments.

[9] = test system: postoperative pain (hard tissue surgery); settings: human, in vivo
[10] = Phase 1 clinical trials, safety and sedation (Ramsey Sedation Scale); assay type: in vivo, human
Source text: The most common TEAEs across evaluated populations were transient facial tingling or numbness, dizziness, fatigue and a transient increase in urine output in the absence of electrolyte loss, or aquaresis. […] No other changes in vital signs, including supine pulse rate, blood pressure, respiratory rate, oral body temperature, or oxygen saturation were reported, nor were any clinically significant changes observed in electrocardiogram characteristics. Additionally, the CNS adverse events characteristic of prior-generation CNS-active kappa agonists, such as acute psychiatric side effects, were not observed with CR845. The potential to cause sedation was assessed using the Ramsey Sedation Scale in the ascending dose-tolerance Phase 1 trial (Study 2048-001) of I.V. CR845, which included 54 subjects (17 on placebo; 37 on CR845).

CC(C)C[C@@H](NC(=O)[C@@H](Cc1ccccc1)NC(=O)[C@H](N)Cc1ccccc1)C(=O)N[C@H](CCCCN)C(=O)N1CCC(N)(C(=O)O)CC1 [CR845, D-Phe-D-Phe-D-Leu-D-Lys-[ω(4-aminopiperidine-4-carboxylic acid)]—OH]
Greater reduction in pain intensity (PID) at 24 hours compared to Placebo/Placebo [1]: approximately 60%
Improvement in mean SPID values 0-4 hour compared to Placebo/Placebo [1]: 3.5 fold
Incidence of nausea, patients [1]: 26.1%
Incidence of vomiting, patients [1]: 1.7%
Mean TOTPAR0-2, pain relief within first 2 hours compared to Placebo/Placebo [1]: statistically superior pain relief
Percentage of patients characterized as Responders (global evaluation of study medication) compared to placebo [1]: higher percentage
Pruritus reported compared to placebo [1]: less pruritus
Reduction of incidence of nausea versus placebo [1]: approximately 50%
Reduction of incidence of vomiting versus placebo [1]: ~80%
SPID over 0-8, 0-12 and 0-16 time periods compared to Placebo/Placebo [1]: reduced pain intensity
Blood sodium increase (hypernatremia), of total patients ([1]; iv, 0.04 mg/kg): 14%
Duration of Action [2]: >18 h
ED50 (I.V., mg/kg) ([2]; I.V.): 0.07 mg/kg
Duration of Action [3]: >2 h
ED50 (I.V., mg/kg) ([3]; I.V., mechanical hyperalgesia): 0.08 mg/kg
Time at which analgesic effect was recordable post-administration [4]: ≤ 15 min
Duration of analgesic effect following single-dose administration ([4]; single dose): up to 18 hours
Production and release of pro-inflammatory mediators [5]: decreased the production and release of pro-inflammatory mediators
Duration of Action [6]: >1 h
ED50 (I.V., mg/kg) ([6]; I.V., mechanical hyperalgesia): 0.3 mg/kg
Concentration of drug in extracted brain tissue [7]: no measurable concentrations
ED50 (I.V., mg/kg) ([8]; Rat, I.V., L5/6 Spinal Nerve Ligation, tactile allodynia): 0.3 mg/kg
Duration of Action ([8]; Rat, L5/6 Spinal Nerve Ligation): >8 h
Paw withdrawal threshold ([8]; rats, I.V. CR845 1 mg/kg, Chung Model): increase in the withdrawal threshold
Acute psychiatric side effects [9]: no evidence of acute psychiatric side effects
Mean PID from baseline relative to placebo across 48 hour trial period [9]: numerically superior
Most frequent TEAEs (greater than 10%) [9]: transient facial tingling and somnolence
Reduction of incidence of nausea compared to placebo [9]: 60%
Reduction of incidence of vomiting compared to placebo [9]: 80%
SPID scores 0-24, 0-36, 0-48 compared to placebo [9]: Numerical improvements
Rise of mean plasma sodium concentration from baseline ([9]; iv, 0.005 mg/kg): approximately 3%
SPID0-24 compared to placebo ([9]; iv, 0.005 mg/kg): statistically significant reduction in pain intensity
SPID0-36 compared to placebo ([9]; iv, 0.005 mg/kg): statistically significant
SPID0-48 compared to placebo ([9]; iv, 0.005 mg/kg): statistically significant
Sedation, Ramsey Sedation Scale ([10]; ascending dose-tolerance Phase 1 trial (Study 2048-001), I.V., healthy subjects): did not cause sedation
Tolerability ([10]; four Phase 1 clinical trials): generally well tolerated

Oc1ccc2c3c1O[C@H]1c4[nH]c5c(c4C[C@@]4(O)[C@@H](C2)N(CC2CC2)CC[C@]314)C[C@@]1(O)[C@H]2Cc3ccc(O)c4c3[C@@]1(CCN2CC1CC1)[C@H]5O4 [nor-BNI, nor-binaltorphamine, reference compound]
Effect of kappa antagonist on efficacy of CR845 ([8]; rats, 0.2 mg intraplantar into injured paw 15 min prior to CR845 1 mg/kg): significantly reduces the effect of CR845
